# “And” between values parts separate entries of the source, which are not always exact repeats. Identical values can stand only once. “Also recorded” adds a separate entry of the source.
# Experiment: Surface tension measurement, Kruss Processor Tensiometer-K12, Wilhelmy-method (plate method)
# Format: physicochemical
# Conditions: for Surface tension, 25° C. Extrapolated Values at 2 mg/ml / Surface tension, 45° C. Extrapolated Values at 2 mg/ml: extrapolated to 2 mg/ml
# Description: A “surface active” material is one having surface activity (measured, e.g., by surface tensiometry), as characterized by its ability to reduce the surface tension of the liquid in which it is dissolved. […] A peptide that is more surface active than another peptide is one which decreases the surface tension of water to a greater extent, when present in the liquid at the same concentration and measured under the same set of experimental conditions. The surface tension of several representative dipeptides, tripeptides, and proteins was measured at 25° C. and 45° C. to provide an indication of their relative surface activities. Surface tension measurements were carried out using a Kruss Processor Tensiometer-K12 with the Wilhelmy-method (Plate method). Solutions were prepared by dissolving either 0.05%, 0.2%, or 0.6% peptide/protein (by weight) along with an appropriate amount of raffinose by weight to provide final solutions having a 1.0% by weight solids content. Surface tension measurements at 25° C. and 45° C. were then obtained for the test solutions at three different time points (49 seconds, 100 seconds and 194 seconds).
# [1] = Table 2: 0.20% (wt/vol) plus 0.80% raffinose, 25° C., 49 s
# [2] = Table 2: 0.20% (wt/vol) plus 0.80% raffinose, 25° C., 100 s
# [3] = Table 2: 0.20% (wt/vol) plus 0.80% raffinose, 25° C., 194 s
# [4] = 0.2% (wt/vol) plus raffinose to 1% total solids, 25° C., 49 s
# [5] = 0.2% (wt/vol) plus raffinose to 1% total solids, 25° C., 100 s
# [6] = 0.2% (wt/vol) plus raffinose to 1% total solids, 25° C., 194 s
substance,measurement,setting,value
di-isoleucine [reference compound],"Surface activity (ability to lower the surface tension of water), in words",,not particularly effective at lowering the surface tension of water
same,Surface tension (ST),[1],67.7 mN/m and 67.6 mN/m and 68 mN/m
same,Surface tension (ST),[2],71.6 mN/m and 67.2 mN/m and 67.8 mN/m
same,Surface tension (ST),[3],71.6 mN/m and 67 mN/m and 67.6 mN/m
di-valine [reference compound],"Surface activity (ability to lower the surface tension of water), in words",,not particularly effective at lowering the surface tension of water
same,Surface tension (ST),[1],71.7 mN/m and 71.6 mN/m
same,Surface tension (ST),[2],71.6 mN/m
same,Surface tension (ST),[3],71.6 mN/m
dileucine [di-leucine],"Surface activity (ability to lower the surface tension of water), in words",,highly surface active; also recorded: more effective than any of the other dimers examined in reducing the surface tension of water
same,"Surface tension, Actual MEAN","1.51 mg/ml, 25° C.",61.5 mN/m
same,"Surface tension, Actual MEAN","1.51 mg/ml, 45° C.",53.2 mN/m
same,"Surface tension, Actual MEAN","4.53 mg/ml, 25° C.",54.9 mN/m
same,"Surface tension, Actual MEAN","4.53 mg/ml, 45° C.",48.2 mN/m
same,"Surface tension, Actual MEAN","13.60 mg/ml, 25° C.",46.6 mN/m
same,"Surface tension, Actual MEAN","13.60 mg/ml, 45° C.",42.7 mN/m
same,Surface tension (ST),[4],58.4 mN/m and 58.7 mN/m and 60.1 mN/m
same,Surface tension (ST),[5],58.1 mN/m and 58.3 mN/m and 59.8 mN/m
same,Surface tension (ST),[6],57.9 mN/m and 58.2 mN/m and 59.7 mN/m
same,"Surface tension, 25° C. Extrapolated Values at 2 mg/ml",25° C.,60.4 mN/m
same,"Surface tension, 45° C. Extrapolated Values at 2 mg/ml",45° C.,52.4 mN/m
leu-leu-ala,"Surface tension, Actual MEAN","0.76 mg/ml, 25° C.",60.7 mN/m
same,"Surface tension, Actual MEAN","0.76 mg/ml, 45° C.",58.3 mN/m
same,"Surface tension, Actual MEAN","2.27 mg/ml, 25° C.",43.5 mN/m
same,"Surface tension, Actual MEAN","2.27 mg/ml, 45° C.",48.2 mN/m
same,"Surface tension, Actual MEAN","6.80 mg/ml, 25° C.",39.9 mN/m
same,"Surface tension, Actual MEAN","6.80 mg/ml, 45° C.",48.4 mN/m
same,"Surface tension, 25° C. Extrapolated Values at 2 mg/ml",25° C.,46.6 mN/m
same,"Surface tension, 45° C. Extrapolated Values at 2 mg/ml",45° C.,49.8 mN/m
leu-phe-leu,"Surface tension, Actual MEAN","0.68 mg/ml, 25° C.",54.7 mN/m
same,"Surface tension, Actual MEAN","0.68 mg/ml, 45° C.",53.6 mN/m
same,"Surface tension, Actual MEAN","2.03 mg/ml, 25° C.",48.3 mN/m
same,"Surface tension, Actual MEAN","2.03 mg/ml, 45° C.",46.2 mN/m
same,"Surface tension, Actual MEAN","6.10 mg/ml, 25° C.",41.5 mN/m
same,"Surface tension, Actual MEAN","6.10 mg/ml, 45° C.",39.3 mN/m
same,"Surface tension, 25° C. Extrapolated Values at 2 mg/ml",25° C.,48.3 mN/m
same,"Surface tension, 45° C. Extrapolated Values at 2 mg/ml",45° C.,46.2 mN/m
leu-tyr-leu,"Surface activity (ability to lower the surface tension of water), in words",,the most surface active of the trimers
same,"Surface tension, Actual MEAN","0.32 mg/ml, 25° C.",58.4 mN/m
same,"Surface tension, Actual MEAN","0.32 mg/ml, 45° C.",55.4 mN/m
same,"Surface tension, Actual MEAN","0.97 mg/ml, 25° C.",51.6 mN/m
same,"Surface tension, Actual MEAN","0.97 mg/ml, 45° C.",49.1 mN/m
same,"Surface tension, Actual MEAN","2.90 mg/ml, 25° C.",44.7 mN/m
same,"Surface tension, Actual MEAN","2.90 mg/ml, 45° C.",40.8 mN/m
same,"Surface tension, 25° C. Extrapolated Values at 2 mg/ml",25° C.,47.9 mN/m
same,"Surface tension, 45° C. Extrapolated Values at 2 mg/ml",45° C.,44.7 mN/m
"salmon calcitonin [sal. Calcitonin, reference compound]","Surface activity (ability to lower the surface tension of water), in words",,highly surface active
same,Surface tension (ST),[4],48.7 mN/m
same,Surface tension (ST),"0.2% (wt/vol) plus raffinose to 1% total solids, 25° C., 49 s, listed as sal. calcitonin",48.4 mN/m
same,Surface tension (ST),[5],48.6 mN/m
same,Surface tension (ST),"0.2% (wt/vol) plus raffinose to 1% total solids, 25° C., 100 s, listed as sal. calcitonin",48.4 mN/m
same,Surface tension (ST),[6],48.5 mN/m
same,Surface tension (ST),"0.2% (wt/vol) plus raffinose to 1% total solids, 25° C., 194 s, listed as sal. calcitonin",48.4 mN/m
tri-valine [reference compound],"Surface activity (ability to lower the surface tension of water), in words",,not particularly effective at lowering the surface tension of water
same,Surface tension (ST),[1],68.8 mN/m and 68.7 mN/m
same,Surface tension (ST),[2],68.8 mN/m and 68.7 mN/m
same,Surface tension (ST),[3],68.8 mN/m and 68.7 mN/m

# From patent publication US7482024B2, “Compositions comprising an active agent” (Nektar Therapeutics, priority 1999, dated 2009)
